{"source": "a melting point compilation (Tetko et al.; mined from patent text by program, amines drawn as free bases though some values may be those of a salt)"}
{"units": {"melting point": "°C"}}
{"smiles": "Cc1ccc(C2c3c(C)c(N4CCN(c5ccc(F)cc5)CC4)c(C)c(C)c3OC2(C)C)cc1", "note": "(stereo not given)", "melting point": "159 to 162"}
{"smiles": "COC(=O)c1ccc(Cc2csc3ccc(NC(=O)OC4CCCC4)cc23)c(OC)c1", "melting point": "163 to 164"}
{"smiles": "CC(NC(Nc1cccc(C#N)c1)=C(C#N)S(=O)(=O)c1ccc(Cl)cc1)C(C)(C)C", "note": "(stereo not given)", "melting point": "80 to 82"}
{"smiles": "O=C(O)c1cc(C(=O)O)c2c(c1)C(C(=O)O)CC(c1ccccc1)N2", "note": "(stereo not given)", "melting point": 300}
{"smiles": "CCOC(=O)COc1cc(OC)cc2c1c1c(n2Cc2ccccc2)CCCC1C(N)=O", "note": "(stereo not given)", "melting point": "167 to 169"}
{"smiles": "COc1ccc2c(c1)S(=O)(=O)N=CN2CCO", "melting point": "160 to 162"}
{"smiles": "CC(C)C(S)C(=O)NC1(C(=O)NC(Cc2ccc(-c3ccccc3)nc2)C(=O)O)CCCC1", "note": "(stereo not given)", "melting point": "208 to 211"}
{"smiles": "CCC1(CCCCN2CCN(c3ccc(Cl)cc3)CC2)C(=O)Nc2ccccc21", "note": "(stereo not given)", "melting point": "145 to 146"}
{"smiles": "O=[N+]([O-])c1cc(Cc2cc(Cl)ccc2O)c(O)c(Cc2cc(Cl)ccc2O)c1", "melting point": 220}
{"smiles": "CCOC(=O)C(=O)Nc1cccc(NC(=O)C(=O)OCC)c1", "melting point": 150}
{"smiles": "CCOC(=O)CC1(c2ccc(Cl)c(Cl)c2)CNC(=O)C1", "note": "(stereo not given)", "melting point": "87 to 90"}
{"smiles": "N#Cc1cccc(CNc2cc(C(N)=O)c([N+](=O)[O-])cc2[N+](=O)[O-])c1", "melting point": "228 to 230"}
{"smiles": "CCCN(Cc1ccc(-c2ccccc2-c2nnnn2C(c2ccccc2)(c2ccccc2)c2ccccc2)cc1)c1nc(C)cnc1C(=O)OCC", "melting point": "110 to 112"}
{"smiles": "O=C(O)c1cn(Cc2ccc(OCc3csc(-c4ccccc4)n3)cc2)nc1-c1ccccc1", "melting point": "119 to 120"}
{"smiles": "C=CCNc1nc(N2CCCCC2)c2cc([N+](=O)[O-])ccc2n1", "melting point": "123 to 124"}
{"smiles": "CN1CCN(Cc2nnc3n2-c2ccc(Cl)cc2C(c2ccccc2)=NC3)CC1", "melting point": "203 to 206"}
{"smiles": "CCCCN(CCCC)c1ccc(C=Cc2ccc(C=CC3=C(C#N)C(=C(C#N)C#N)OC3(c3ccccc3)C(F)(F)F)s2)c(OCc2ccccc2)c1", "note": "(stereo not given)", "melting point": "196 to 197"}
{"smiles": "Cc1cc(C)cc(-c2cn(C)cc(-c3ccccc3)c2=O)c1", "melting point": "148 to 150"}
{"smiles": "CC1(C)OC(=O)Nc2ccc(-c3cc(F)cc([N+](=O)[O-])c3)cc21", "melting point": "260 to 261"}
{"smiles": "CCN(CC)C(=O)COc1ccc(CCC(=O)NS(=O)(=O)CCC(C)C)c(Oc2ncc(C(F)(F)F)cc2Cl)c1", "melting point": "123 to 125"}
{"smiles": "COc1cc(OC)nc(NC(=O)NS(=O)(=O)c2cccc3cccnc23)n1", "melting point": "175 to 177"}
{"smiles": "O=C(CS(=O)(=O)C(c1ccc(Cl)cc1)c1ccc(Cl)cc1)c1ccccn1", "melting point": "120 to 121"}
{"smiles": "Nc1nc2cccnc2c2c1nc(CO)n2CC1(O)CCOCC1", "melting point": "> 250"}
{"smiles": "OC(CN1CC=C(c2c[nH]c3ccccc23)CC1)C1COc2ccccc2O1", "note": "(stereo not given)", "melting point": 177}
{"smiles": "Cc1nn(-c2cccc(C(F)(F)F)c2)cc1C(=O)N(CC(=O)O)c1ccc(OCC(C)(C)C)c(C#N)c1", "melting point": "110 to 112"}
{"smiles": "OC1(c2ccc(F)cc2)Cc2ccccc2C2=NCCN21", "note": "(stereo not given)", "melting point": "150 to 151"}
{"smiles": "Cc1csc(C2(c3cccs3)CCCO2)n1", "note": "(stereo not given)", "melting point": "59 to 60"}
{"smiles": "CCCCn1nc(C)c(C(=O)OC)c1Cc1ccc(-c2ccccc2S(N)(=O)=O)cc1", "melting point": "49 to 54"}
{"smiles": "CCOC(=O)c1cn(-c2nccs2)cn1", "melting point": "142 to 143"}
{"smiles": "CC(=O)c1oc2ccc(Br)cc2c1NC(=O)c1cnoc1C", "melting point": "206 to 208"}
{"smiles": "CC(=O)NC[C@H]1CN(c2ccc(C(=O)c3cnc4c(Br)cc(C)cn34)cc2)C(=O)O1", "melting point": "221 to 223"}
{"smiles": "CCCn1c(-c2ccc(-n3ccnc3)cc2)cnc1[C@H](Cc1ccccn1)N(C=O)c1cc2cc(Cl)ccc2o1", "melting point": "173 to 175"}
{"smiles": "CC(C)(C)c1cc(SCCC(=O)NN)cc(C(C)(C)C)c1O", "melting point": "107 to 110"}
{"smiles": "COc1ccc2cc(CC3=C(CC(=O)O)CCCC3=O)ccc2c1Br", "melting point": "165 to 166"}
{"smiles": "COC(=O)c1c(F)c(F)c(N=[N+]=[N-])c(F)c1F", "melting point": "53.6 to 54.3"}
{"smiles": "COC(=O)Nc1coc2cc(NS(C)(=O)=O)c(Oc3ccccc3)cc2c1=O", "melting point": "233 to 235"}
{"smiles": "Clc1ccc(C2(Cn3ccnc3)OCC(CCc3ccccc3)O2)c(Cl)c1", "note": "(stereo not given)", "melting point": 118}
{"smiles": "Cc1ccc(N(c2ccc(-c3ccc(N(c4ccccc4)c4cccc(C)c4)cc3)cc2)c2ccc3ccc4cccc5ccc2c3c45)cc1", "melting point": "172 to 173"}
{"smiles": "CCCCC1CSC(C(=O)Nc2c(SC)cc(C)nc2SC)c2cc(OC)c(OC)cc2C1", "note": "(stereo not given)", "melting point": "143 to 145"}
{"smiles": "Cc1cccc(-c2[nH]c(C(C)C)nc2-c2cccc(-c3cccc(S(N)(=O)=O)c3)c2)n1", "melting point": "123 to 126"}
{"smiles": "Cn1nc(-c2cc(S(=O)(=O)Cl)c(Cl)cc2F)c(Cl)c1C(F)(F)F", "melting point": "116 to 117"}
{"smiles": "CCCCCCCCCCS(=O)(=O)NC(=O)c1cnc(C(=O)O)c(OC)c1", "melting point": 145}
{"smiles": "COc1cc(C=CC(=O)c2ccc(-c3cccs3)s2)ccc1O", "melting point": "166 to 168"}
{"smiles": "N#Cc1cc[nH]c1-c1cc2ccccc2o1", "melting point": "157 to 160"}
{"smiles": "CCOC(=O)C1=C(C(F)(F)F)NC(N)(C(F)(F)F)C(C(=O)OCC)S1", "note": "(stereo not given)", "melting point": "87.5 to 89"}
{"smiles": "CCOC(=O)C(S)(C#N)C1=NC(C)Cc2cc(OC)c(OC)cc21", "note": "(stereo not given)", "melting point": "128 to 130"}
{"smiles": "O=C1NC(=O)C2c3cccc4cccc(c34)C12", "note": "(stereo not given)", "melting point": "242 to 246"}
{"smiles": "O=C(O)c1nc2n(n1)-c1cccnc1N(c1ccc(Cl)cc1)C2", "melting point": "234 to 237"}
{"smiles": "CCOC(=O)C1C(C=C(Br)Br)C1(C)C", "note": "(stereo not given)", "melting point": 110}
{"smiles": "O=C(CCN1CCCC1)Nc1ccc2c(=O)c3ccc(NC(=O)CCN4CCCC4)cc3[nH]c2c1", "melting point": "> 320"}
{"smiles": "COC(=O)C(=CN1c2ccc(F)c(F)c2OCC1C)C(=O)OC", "note": "(stereo not given)", "melting point": "146 to 147"}
{"smiles": "C=CCOc1ccc(-c2cc(C(=O)NCc3ccc(OC(C)(C)C(=O)O)c(C)c3)nn2C)cc1", "melting point": 138}
{"smiles": "COC(=C1C2CC3CC1CC(Cl)(C3)C2)c1cc(O)cc(Cl)c1", "melting point": 130}
{"smiles": "Cc1ccc(N)cc1NC(=O)c1ccc(O)cc1", "melting point": "277 to 278"}
{"smiles": "CCN(CCc1ccc(NS(C)(=O)=O)cc1)CCc1ccc(NS(C)(=O)=O)cc1", "melting point": "< 60"}
{"smiles": "Cn1ncnc1COc1nc2c(-c3ccccc3F)nncn2c1C1CCC1", "melting point": 120}
{"smiles": "CC(C)(C)c1ccc(C=C(CCCCCC2CCCCC2)COCc2ccccc2)cc1NC(=O)CC1c2ccccc2Oc2ccccc21", "melting point": 110}
{"smiles": "CC1(C)Oc2ccc(S(=O)(=O)C(F)(F)F)cc2C(N2Cc3cccc([N+](=O)[O-])c3C2=O)C1O", "note": "(stereo not given)", "melting point": "283 to 284"}
{"smiles": "CC(=O)Nc1ccc(C(C)(C)C)cc1[N+](=O)[O-]", "melting point": "109 to 110"}
{"smiles": "CN(Cc1ccc(NC(=O)C2=Cc3cc(-c4ccc5c(c4)OCCO5)ccc3S(=O)(=O)CC2)cc1)C1CCOCC1", "melting point": "248 to 251"}
{"smiles": "CN(c1cccc(C(F)(F)F)c1)c1nc2c(-c3cccc(C(=O)O)c3)cccc2n1C", "melting point": "211 to 212"}
{"smiles": "O=C(O)c1cccc(C(=O)C=Cc2ccc(Cl)c(Cl)c2)c1O", "melting point": "> 250"}
{"smiles": "O=C1NCc2cc(C(=O)c3ccccc3)ccc2N1", "melting point": 265}
{"smiles": "COc1ccc(CC2(C)CN(C(c3ccccc3)c3ccccc3)CCN2C(C)=O)cc1OC", "note": "(stereo not given)", "melting point": 116}
{"smiles": "Cn1c(=O)cnn(-c2cc(N)c(Cl)cc2F)c1=O", "melting point": "150 to 152"}
{"smiles": "CS(=O)(=O)NCc1cccc(-c2nc(=O)c3ccccc3s2)n1", "melting point": "188 to 190"}
{"smiles": "COc1cc2occ(-c3ccccc3)c(=O)c2c(Cl)c1Cl", "melting point": "216 to 218"}
{"smiles": "Cc1cc(C)c(C2C(=O)CCCC2=O)c(C)c1", "melting point": "196 to 198"}
{"smiles": "CCOc1cc2c3c(cccc3c1)C(=O)N(O)C2=O", "melting point": "224 to 227"}
{"smiles": "O=C1c2c(Sc3ccccc3)ccc(Sc3ccc(O)cc3)c2C(=O)c2c(Sc3ccccc3)ccc(Sc3ccc(O)cc3)c21", "melting point": "> 340"}
{"smiles": "Cc1ccc(N2C(=O)NC(=O)C23CCNCC3)cc1", "melting point": "128 to 130"}
{"smiles": "O=C(c1ccccc1)c1cccc2c1CCC2C(=O)NO", "note": "(stereo not given)", "melting point": 160}
{"smiles": "CCc1cc2c(-c3ccccc3Cl)c(C(=O)O)c(=O)n(C)c2s1", "melting point": "155 to 156"}
{"smiles": "CC(C(O)c1ccc(N)cc1)N1CCC(Cc2ccccc2)CC1", "note": "(single isomer, unassigned; (-))", "melting point": "104 to 107"}
{"smiles": "CNC(=O)NC(Cc1c[nH]c2ccccc12)C(=O)OCc1cc(C)cc(C)c1", "note": "(stereo not given)", "melting point": "66 to 68"}
{"smiles": "CCCOCCOc1ccc(-c2ccc3c(c2)C=C(C(=O)O)CCCN3CCC)cc1", "melting point": "202 to 204"}
{"smiles": "CCC(O)(c1ccccc1)c1cccc(N)c1", "note": "(stereo not given)", "melting point": "92 to 93"}
{"smiles": "O=C(NC[C@@H](C(=O)NO)N1CCCCC1)c1ccc(OCc2ccnc(Br)c2)cc1", "melting point": 150}
{"smiles": "CC(C)(C)OC(=O)C[C@@H](NS(=O)(=O)c1ccc2c(Cl)cnc(Cl)c2c1)C(=O)OC(C)(C)C", "melting point": "106 to 110"}
{"smiles": "CCCS(=O)(=O)NCCCCn1c(=O)c2c(C)nc3cccc1n32", "melting point": "150 to 151"}
{"smiles": "COc1ccnc(CCc2ccnc(N)c2N)c1", "melting point": "89 to 91"}
{"smiles": "COc1ccc2cnc(Nc3ccc(N4CCCCC4)c(F)c3)nc2c1C1CCCC1", "melting point": "200 to 201"}
{"smiles": "CCOC(=O)Cc1ccc(CCNC(=O)c2cc(C)ccc2OC)cc1", "melting point": "83 to 85"}
{"smiles": "C=CC(O)c1c(C(C)C)nc(C(C)C)c(CCCCC)c1-c1ccc(F)cc1", "note": "(stereo not given)", "melting point": "83 to 85"}
{"smiles": "COc1ccc(C=O)cc1C", "melting point": 120}
{"smiles": "CC(C#N)c1nc(O)n[nH]1", "note": "(stereo not given)", "melting point": "182 to 184"}
{"smiles": "CCCC(=O)Nc1n[nH]c2cc(Cl)c(-c3ccccc3)cc12", "melting point": 235}
{"smiles": "NCCCC(N)(C(=O)O)C(F)F", "note": "(stereo not given)", "melting point": 183}
{"smiles": "O=Cc1cc([N+](=O)[O-])cc(Cl)c1S", "melting point": "84 to 89"}
{"smiles": "CC(=O)Nc1ccc(C(=O)c2c(N)sc3c2CCN(Cc2ccccc2)C3)cc1", "melting point": "119 to 120"}
{"smiles": "Nc1ccc(OC(F)(F)F)c(-c2nc3ccccc3o2)c1", "melting point": "133 to 135"}
{"smiles": "COc1ccc2[nH]c(C)c(C=O)c2c1", "melting point": "190 to 191"}
{"smiles": "COc1cc(C(=O)NS(=O)(=O)c2ccccc2)ccc1CN1CCOc2ccc(NC(=O)CC3CCCC3)cc21", "melting point": "190 to 192"}
{"smiles": "CCOC(=O)c1cn2c3c(c(F)c(F)c(N)c3c1=O)CCN2C", "melting point": "255 to 257"}
{"smiles": "NC(=S)C(F)(F)C[C@H]1CN(c2ccc(C3C=CS(=O)(=O)CC3)cc2)C(=O)O1", "note": "(stereo not given in full)", "melting point": "139 to 140"}
